Tested on: IRF3 activation in THP-1 Dual Cells
Assay: IRF3 activation assay in THP-1 Dual Cells (QUANTI-Blue readout)
Type: cell-based
Settings: Homo sapiens, THP1-Dual, 24 h
Description: THP-1 Dual Cells (Invivogen) were maintained in RPMI1640 medium with addition of 10% FBS, 100 μg/ml zeocin, 10 μg/ml blasticidin. Cells were added in a 96-well flat bottom assay plate at 100,000 per well in 100 μL complete RPMI medium. Test compounds were prepared by serial dilution in complete RPMI medium and 100 μL test compounds were transferred to each corresponding well. The assay plate was incubated at 37° C., 5% CO2 for 24 hours. After the overnight incubation, 20 μL of the culture supernatants were collected, followed by addition of 180 μL of QUANTI-Blue (Invivogen) to assess IRF3 activity. The amount of IRF3 activation was assessed by reading the absorbance at 620-655 nm with a microplate reader 2 hours later. The culture supernatant from the untreated THP-1 cells was used as the negative control. To determine the NF-κB activation, another 20 μL of culture supernatant were transferred to a 96-well white plate, followed by addition of 50 μL of Quanti-Luc™ assay solution (Invivogen). The amount of NF-κB activation induced by the test compounds were determined by the luminescence above the untreated control. EC50 determination was performed by fitting the curve of percent control activity versus the log of the compound concentration using the GraphPad Prism 6.0 software.

| EC50 (Table 2, 24 hours incubation) | EC50 (Table 1, 24 hours incubation) | Structure (SMILES) |
| --- | --- | --- |
| < 50 nM |  | CCn1nc(C)cc1C(=O)Nc1nc2cc(C(N)=O)cc(OCCOCCOCCC(=O)O)c2n1C/C=C/Cn1c2nc(-c3cc(C)nn3CC)ncc2c2cc(C(N)=O)cc(OCCCOC)c21 [Example 44, (E)-3-(2-(2-((5-carbamoyl-1-(4-(6-carbamoyl-2-(1-ethyl-3-methyl-1H-pyrazol-5-yl)-8-(3-methoxypropoxy)-9H-pyrimido[4,5-b]indol-9-yl)but-2-en-1-yl)-2-(1-ethyl-3-methyl-1H-pyrazole-5-carboxamido)-1H-benzo[d]imidazol-7-yl)oxy)ethoxy)ethoxy)propanoic Acid] |
| 200 to 500 nM |  | CCn1nc(C)cc1C(=O)Nc1nc2cc(C(N)=O)cc(OCCCOC(=O)NCCC(=O)O)c2n1C/C=C/Cn1c2nc(-c3cc(C)nn3CC)ncc2c2cc(C(N)=O)cc(OCCOCCOCCC(=O)O)c21 [Example 58, (E)-3-(((3-((5-carbamoyl-1-(4-(6-carbamoyl-8-(2-(2-(2-carboxyethoxy)ethoxy)ethoxy)-2-(1-ethyl-3-methyl-1H-pyrazol-5-yl)-9H-pyrimido[4,5-b]indol-9-yl)but-2-en-1-yl)-2-(1-ethyl-3-methyl-1H-pyrazole-5-carboxamido)-1H-benzo[d]imidazol-7-yl)oxy)propoxy)carbonyl)amino)propanoic Acid] |
| < 50 nM |  | CCn1nc(C)cc1C(=O)Nc1nc2cc(C(N)=O)cc(OCCCOC(=O)NCCC(=O)O)c2n1C/C=C/Cn1c2nc(-c3cc(C)nn3CC)ncc2c2cc(C(N)=O)cc(OCCCOC)c21 [Example 43, (E)-3-(((3-((5-carbamoyl-1-(4-(6-carbamoyl-2-(1-ethyl-3-methyl-1H-pyrazol-5-yl)-8-(3-methoxypropoxy)-9H-pyrimido[4,5-b]indol-9-yl)but-2-en-1-yl)-2-(1-ethyl-3-methyl-1H-pyrazole-5-carboxamido)-1H-benzo[d]imidazol-7-yl)oxy)propoxy)carbonyl)amino)propanoic Acid] |
| 50 to 200 nM |  | CCn1nc(C)cc1C(=O)Nc1nc2cc(C(N)=O)cc(OC)c2n1C/C=C/Cn1c2nc(-c3cc(C)nn3CC)ncc2c2cc(C(N)=O)cc(OCCC3CCN(C(=O)OCC(=O)O)CC3)c21 [Example 56, (E)-2-(4-(2-(6-carbamoyl-9-(4-(5-carbamoyl-2-(1-ethyl-3-methyl-1H-pyrazole-5-carboxamido)-7-methoxy-1H-benzo[d]imidazol-1-yl)but-2-enyl)-2-(1-ethyl-3-methyl-1H-pyrazol-5-yl)-9H-pyrimido[4,5-b]indol-8-yloxy)ethyl)piperidine-1-carbonyloxy)acetic Acid] |
| < 50 nM |  | CCn1nc(C)cc1C(=O)Nc1nc2cc(C(N)=O)cc(OCCCOC)c2n1C/C=C/Cn1c2nc(-c3cc(C)nn3CC)ncc2c2cc(C(N)=O)cc(OCCCNC(=O)OCCC(=O)O)c21 [Example 51, (E)-3-(3-(6-carbamoyl-9-(4-(5-carbamoyl-2-(1-ethyl-3-methyl-1H-pyrazole-5-carboxamido)-7-(3-methoxypropoxy)-1H-benzo[d]imidazol-1-yl)but-2-enyl)-2-(1-ethyl-3-methyl-1H-pyrazol-5-yl)-9H-pyrimido[4,5-b]indol-8-yloxy)propylcarbamoyloxy)propanoic Acid] |
| < 50 nM |  | CCn1nc(C)cc1C(=O)Nc1nc2cc(C(N)=O)cc(OCCCO)c2n1C/C=C/Cn1c2ccc(C(N)=O)cc2c2cc(F)c(-c3cc(C)nn3CC)nc21 [Example 32, (E)-9-(4-(5-carbamoyl-2-(1-ethyl-3-methyl-1H-pyrazole-5-carboxamido)-7-(3-hydroxypropoxy)-1H-benzo[d]imidazol-1-yl)but-2-en-1-yl)-2-(1-ethyl-3-methyl-1H-pyrazol-5-yl)-3-fluoro-9H-pyrido[2,3-b]indole-6-carboxamide] |
| < 50 nM |  | CCn1nc(C)cc1C(=O)Nc1nc2cc(C(N)=O)cc(OCCCO)c2n1C/C=C/Cn1c2nc(-c3cc(C)nn3CC)ncc2c2cc(C(N)=O)cc(OCCCNC(=O)OCCC(=O)O)c21 [Example 49, (E)-3-(3-(6-carbamoyl-9-(4-(5-carbamoyl-2-(1-ethyl-3-methyl-1H-pyrazole-5-carboxamido)-7-(3-hydroxypropoxy)-1H-benzo[d]imidazol-1-yl)but-2-enyl)-2-(1-ethyl-3-methyl-1H-pyrazol-5-yl)-9H-pyrimido[4,5-b]indol-8-yloxy)propylcarbamoyloxy)propanoic Acid] |
| < 50 nM |  | CCn1nc(C)cc1C(=O)Nc1nc2cc(C(N)=O)cc(OC)c2n1C/C=C/Cn1c2nc(-c3cc(C)nn3CC)ncc2c2cc(C(N)=O)cc(OCCCNC(=O)CCCC(=O)O)c21 [Example 46, (E)-5-(3-(6-carbamoyl-9-(4-(5-carbamoyl-2-(1-ethyl-3-methyl-1H-pyrazole-5-carboxamido)-7-methoxy-1H-benzo[d]imidazol-1-yl)but-2-enyl)-2-(1-ethyl-3-methyl-1H-pyrazol-5-yl)-9H-pyrimido[4,5-b]indol-8-yloxy)propylamino)-5-oxopentanoic Acid] |
| 50 to 200 nM |  | CCn1nc(C)cc1C(=O)Nc1nc2cc(C(N)=O)cc(OCCCOC)c2n1C/C=C/Cn1c2nc(-c3cc(C)nn3CC)ncc2c2cc(C(N)=O)cc(OCCCOC(=O)NCCC(=O)O)c21 [Example 52, (E)-3-((3-(6-carbamoyl-9-(4-(5-carbamoyl-2-(1-ethyl-3-methyl-1H-pyrazole-5-carboxamido)-7-(3-methoxypropoxy)-1H-benzo[d]imidazol-1-yl)but-2-enyl)-2-(1-ethyl-3-methyl-1H-pyrazol-5-yl)-9H-pyrimido[4,5-b]indol-8-yloxy)propoxy)carbonylamino)propanoic Acid] |

Second part, the compound before the results:

| Structure (SMILES) | EC50 (Table 2, 24 hours incubation) | EC50 (Table 1, 24 hours incubation) |
| --- | --- | --- |
| CCn1nc(C)cc1C(=O)Nc1nc2cc(C(N)=O)cc(C)c2n1C/C=C/Cn1c2ccc(C(N)=O)cc2c2ccc(-c3cc(C)nn3CC)nc21 [Example 5, (E)-9-(4-(5-carbamoyl-2-(1-ethyl-3-methyl-1H-pyrazole-5-carboxamido)-7-methyl-1H-benzo[d]imidazol-1-yl)but-2-en-1-yl)-2-(1-ethyl-3-methyl-1H-pyrazol-5-yl)-9H-pyrido[2,3-b]indole-6-carboxamide] | 50 to 200 nM | < 1000 nM |
| CCn1nc(C)cc1C(=O)Nc1nc2cc(C(N)=O)cc(OCCCOC(=O)c3cc(C)nn3CC)c2n1C/C=C/Cn1c2nc(-c3cc(C)nn3CC)ncc2c2cc(C(N)=O)cc(OCCCN3CCOCC3)c21 [Example 19, (E)-3-((5-carbamoyl-1-(4-(6-carbamoyl-2-(1-ethyl-3-methyl-1H-pyrazol-5-yl)-8-(3-morpholinopropoxy)-9H-pyrimido[4,5-b]indol-9-yl)but-2-en-1-yl)-2-(1-ethyl-3-methyl-1H-pyrazole-5-carboxamido)-1H-benzo[d]imidazol-7-yl)oxy)propyl 1-ethyl-3-methyl-1H-pyrazole-5-carboxylate] | < 50 nM | < 200 nM |
| CCn1nc(C)cc1C(=O)Nc1nc2cc(C(N)=O)cc(C)c2n1C/C=C/Cn1c2nc(-c3cc(C)nn3CC)ncc2c2cc(C(N)=O)cc(OC)c21 [Example 10, (E)-9-(4-(5-carbamoyl-2-(1-ethyl-3-methyl-1H-pyrazole-5-carboxamido)-7-methyl-1H-benzo[d]imidazol-1-yl)but-2-enyl)-2-(1-ethyl-3-methyl-1H-pyrazol-5-yl)-8-methoxy-9H-pyrimido[4,5-b]indole-6-carboxamide] | < 50 nM | < 200 nM |
| CCn1nc(C)cc1C(=O)Nc1nc2cc(C(N)=O)cc(C)c2n1C/C=C/Cn1c2ccc(C(N)=O)cc2c2cnc(-c3cc(C)nn3CC)nc21 [Example 1, (E)-9-(4-(5-carbamoyl-2-(1-ethyl-3-methyl-1H-pyrazole-5-carboxamido)-7-methyl-1H-benzo[d]imidazol-1-yl)but-2-enyl)-2-(1-ethyl-3-methyl-1H-pyrazol-5-yl)-9H-pyrimido[4,5-b]indole-6-carboxamide] | 50 to 200 nM | < 1000 nM |
| CCn1nc(C)cc1C(=O)Nc1nc2cc(C(N)=O)cc(C)c2n1C/C=C/Cn1c2ccc(C(N)=O)cc2c2cnc(-c3cc(C)nn3CC)c(C#N)c21 [Example 26, (E)-5-(4-(5-carbamoyl-2-(1-ethyl-3-methyl-1H-pyrazole-5-carboxamido)-7-methyl-1H-benzo[d]imidazol-1-yl)but-2-en-1-yl)-4-cyano-3-(1-ethyl-3-methyl-1H-pyrazol-5-yl)-5H-pyrido[4,3-b]indole-8-carboxamide] | 500 to 1000 nM | < 1000 nM |
| CCn1nc(C)cc1C(=O)Nc1nc2cc(C(N)=O)cc(OCCCOC(=O)c3cc(C)nn3CC)c2n1C/C=C/Cn1c2ccc(C(N)=O)cc2c2cnc(-c3cc(C)nn3CC)nc21 [Example 17, (E)-3-((5-carbamoyl-1-(4-(6-carbamoyl-2-(1-ethyl-3-methyl-1H-pyrazol-5-yl)-9H-pyrimido[4,5-b]indol-9-yl)but-2-en-1-yl)-2-(1-ethyl-3-methyl-1H-pyrazole-5-carboxamido)-1H-benzo[d]imidazol-7-yl)oxy)propyl 1-ethyl-3-methyl-1H-pyrazole-5-carboxylate] | < 50 nM | < 200 nM |
| CCn1nc(C)cc1C(=O)Nc1nc2cc(C(N)=O)cc(C)c2n1C/C=C/Cn1c2nc(-c3cc(C)nn3CC)ncc2c2cc(C(N)=O)cc(OCCCO)c21 [Example 13, (E)-9-(4-(5-carbamoyl-2-(1-ethyl-3-methyl-1H-pyrazole-5-carboxamido)-7-methyl-1H-benzo[d]imidazol-1-yl)but-2-enyl)-2-(1-ethyl-3-methyl-1H-pyrazol-5-yl)-8-(3-hydroxypropoxy)-9H-pyrimido[4,5-b]indole-6-carboxamide] | < 50 nM | < 200 nM |
